Measured values reported in ChEMBL document CHEMBL1135314, “Synthesis of tag introducible (3-trifluoromethyl)phenyldiazirine based photoreactive phenylalanine” (Bioorg Med Chem Lett, 2002).

Assay: Half life of compound was determined.
Type: ADME

half-life [min]	SMILES
2.6	N[C@@H](Cc1ccc(C2(C(F)(F)F)N=N2)cc1OCCNC(=O)CCCC[C@@H]1SC[C@@H]2NC(=O)N[C@@H]21)C(=O)O
2.3	N[C@@H](Cc1ccc(C2(C(F)(F)F)N=N2)cc1OCCOCCOCCNC(=O)CCCC[C@@H]1SC[C@@H]2NC(=O)N[C@@H]21)C(=O)O
